Source: US7517857B2, “Immune-modulating peptide” (POSCO, priority 2002, dated 2009)
Where a SMILES comes first, the peptide text is derived from it. Where no end group is shown, it is not given here. [ ]: non-standard residue; d: D form.

How the values were obtained:
human neutrophils = assay: Superoxide generation in human neutrophils (cytochrome c reduction); format: cell-based; conditions: for O^2− (nmol/10^6 cells), superoxide generation: cytochrome c reduction
Method in brief: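 Neutrophils isolated from donor leukocyte concentrates by dextran sedimentation, hypotonic erythrocyte lysis and lymphocyte separation gradient; 1×10^6 cells in RPMI 1640 preincubated 1 min at 37° C with 50 μM cytochrome c, then peptide added. Superoxide quantified as cytochrome c reduction, absorbance change at 550 nm over 5 min at 1-min intervals; ≥4 independent experiments.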

FPR [1] = biological target: T1, FPR (Homo sapiens, UniProt P21462); assay: Displacement of 125I-labeled WKYMVm binding to FPR (FPR-expressing RBL-2H3 cells); conditions: FIG. 2A
T1 construct: expressed in transfected cells; host or cells: RBL-2H3 (rat basophilic leukemia) cells, G418-selected
T1 sequence (P21462 1-350): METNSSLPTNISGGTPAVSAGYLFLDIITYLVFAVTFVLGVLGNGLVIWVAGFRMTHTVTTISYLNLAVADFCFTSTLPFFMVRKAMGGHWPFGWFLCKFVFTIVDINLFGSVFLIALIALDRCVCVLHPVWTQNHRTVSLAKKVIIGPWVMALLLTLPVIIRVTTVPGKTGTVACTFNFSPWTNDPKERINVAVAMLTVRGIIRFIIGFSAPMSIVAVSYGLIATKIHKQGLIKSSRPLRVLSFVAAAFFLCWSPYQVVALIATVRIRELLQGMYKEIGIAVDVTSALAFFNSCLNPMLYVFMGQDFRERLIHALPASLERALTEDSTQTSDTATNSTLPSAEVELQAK
Experimental: From the finding that some of the peptides (WKGMVm (SEQ ID NO: 1), WKRMVm (SEQ ID NO: 11), D-Met^6 substituted peptides) could not induce a cytosolic calcium increase, it was checked whether the peptides can bind to FPR or not. Displacement of ^125I-labeled WKYMVm binding to FPR or FPRL1 by the peptides was monitored. FPR-expressing RBL-2H3 cells were incubated with [^125I] WKYMVm in the absence or presence of increasing amounts of unlabeled WKYMVm or the peptides of SEQ ID NOs: 1 to 24.
A ligand binding analysis was performed as modified from the previous report (16). The radioiodinated WKYMVm (^125I-labeled) was purchased from NEN Lifesciences (Boston, Mass.). Briefly, FPR- or FPRL1-expressing RBL-2H3 cells were seeded into 1×10^5 cells per well of a 24-well plate and cultured overnight. After blocking the cells with a blocking buffer (33 mM HEPES, pH 7.5, 0.1% BSA in RPMI) for 2 hr, a single concentration of ^125I-labeled WKYMVm was added to cells with a binding buffer (PBS containing 0.1% BSA) in the absence or presence of 50 μM unlabelled peptides and incubated for 3 hr at 4° C. with continuous shaking. Then the samples were washed 5 times with ice-cold binding buffer, and 200 μl of lysis buffer (20 mM Tris, pH 7.5, 1% Triton X-100) was added to each well. After 20 min of lysis at room temperature, the lysates were collected. Bound ^125I-labeled WKYMVm was measured for radioactivity for a γ-ray counter.

FPR [2] = biological target: T1, FPR; assay: Exocytosis: β-hexosaminidase secretion in FPR-expressing RBL-2H3 cells; format: cell-based; conditions: for granule secretion / β-hexosaminidase release (words): FPR cells, 10 μM of each peptide (WKYMVm also various concentrations)
Experimental: Granule secretion is one of the most important function of mast cells (20). The effect of WKYMVm on granule secretion was checked by measuring β-hexosaminidase secretion as described above (18). Briefly, RBL-2H3 cells (2×10^5/well) expressing FPR or FPRL1 were cultured overnight in a 24-well tissue culture plate. The cells were washed twice with Tyrode's buffer (137 mM NaCl, 12 mM NaHCO3, 5.6 mM glucose, 2.7 mM KCl, 1 mM CaCl2, 0.5 mM MgCl2, 0.4 mM NaH2PO4, 0.1g/100 ml BSA, and 25 mM HEPES, pH 7.4) and stimulated with each peptide. Various concentrations of WKYMVm were treated in FPR- or FPRL1-expressing RBL-2H3 cells (FIG. 5A). 1 μM of WKYMVm was used to stimulate two cell lines in the absence or presence of 10 μM BAPTA/AM (FIG. 5B). The reaction was terminated 20 min after stimulation by placing the plate on ice. Secretion of β-hexosaminidase into the medium was determined by incubating 50 μl of supernatant or cell lysate with 25 μl of 5 mM p-nitrophenyl-N-acetyl-β-D-glucosamide in 0.1 M sodium citrate buffer (pH 3.8) at 37° C. for 2 hr. At the end of the incubation, 50 μl of 0.4 M Na2CO3 were added. Absorbance was monitored at 405 nm. Data are means ±S.E. of a single representative of three experiments performed in triplicate. Values (means ±S.E.) were expressed as a percent of total β-hexosaminidase present in the cells.
From the new finding that cytosolic calcium release was induced by WKYMVm and many of the substituted peptides of WKYMVm but not by some of them (WKGMVm (SEQ ID NO: 1), WKRMVm (SEQ ID NO: 11), D-Met^6 substituted peptides), the effect of the peptides on granule secretion in RBL cells was checked. 10 μM of each peptide was treated in FPR- (FIG. 6A) or FPRL1-expressing RBL-2H3 cells (FIG. 6B). The peptide-induced secretion of β-hexosaminidase was determined as above. Data are means ±S.E. of a single representative of three experiments performed in triplicate.

Compound	O^2− (nmol/10^6 cells), superoxide generation (human neutrophils; peptide 100 nM)	O^2− (nmol/10^6 cells), superoxide generation (human neutrophils; peptide 10 μM)	inhibition of [^125I] WKYMVm binding (FPR [1])	granule secretion / β-hexosaminidase release (words) (FPR [2])	concentration showing the maximal activity on superoxide generation (human neutrophils; data not shown)	O^2− (nmol/10^6 cells), superoxide generation (human neutrophils; peptide 100 nM, listed as wkymvm-NH2)	O^2− (nmol/10^6 cells), superoxide generation (human neutrophils; peptide 10 μM, listed as wkymvm-NH2)	concentration showing maximal β-hexosaminidase release (FPR [2]; FPR-expressing RBL-2H3 cells)
CSCC[C@H](NC(=O)CNC(=O)[C@H](CCCCN)NC(=O)[C@@H](N)Cc1c[nH]c2ccccc12)C(=O)N[C@H](C(=O)N[C@H](CCSC)C(N)=O)C(C)C [WKGMVm-NH2, Trp-Lys-Gly-Met-Val-D-Met-NH2] (H-WKGMV[dM]-NH2; N-terminus assumed)	14.2 ± 3.42 nmol/10^6 cells	37.6 ± 4.57 nmol/10^6 cells	inhibited binding of [^125I] WKYMVm in a concentration-dependent manner	could not effect granule secretion	–	–	–	–
CSCC[C@H](NC(=O)[C@H](CCCNC(=N)N)NC(=O)[C@H](CCCCN)NC(=O)[C@@H](N)Cc1c[nH]c2ccccc12)C(=O)N[C@H](C(=O)N[C@H](CCSC)C(N)=O)C(C)C [WKRMVm-NH2, Trp-Lys-Arg-Met-Val-D-Met-NH2] (H-WKRMV[dM]-NH2; N-terminus assumed)	15.9 ± 2.48 nmol/10^6 cells	41.7 ± 8.32 nmol/10^6 cells	inhibited binding of [^125I] WKYMVm in a concentration-dependent manner	could not effect granule secretion	–	–	–	–
CSCC[C@H](NC(=O)[C@H](Cc1ccc(O)cc1)NC(=O)[C@H](CCCCN)NC(=O)[C@@H](N)Cc1c[nH]c2ccccc12)C(=O)N[C@H](C(=O)N[C@H](CCSC)C(N)=O)C(C)C [WKYMVm-NH2, Trp-Lys-Tyr-Met-Val-D-Met-NH2, reference compound]	37.3 ± 6.94 nmol/10^6 cells	39.0 ± 3.58 nmol/10^6 cells	inhibited binding of [^125I] WKYMVm in a concentration-dependent manner	caused β-hexosaminidase release in a concentration-dependent manner	100 nM	0 nmol/10^6 cells	0 nmol/10^6 cells	100 nM
WKYMVE-NH2 [WKYMVE-NH2, Trp-Lys-Tyr-Met-Val-Glu-NH2]	5.0 ± 0.43 nmol/10^6 cells	33.6 ± 6.43 nmol/10^6 cells	–	–	–	–	–	–
WKYMVR-NH2 [WKYMVR-NH2, Trp-Lys-Tyr-Met-Val-Arg-NH2]	16.3 ± 1.57 nmol/10^6 cells	44.8 ± 3.65 nmol/10^6 cells	–	–	–	–	–	–
